Data taken from patent publication US12678433B2, “Compounds for treatment of hemolysis-and inflammasome-associated diseases” (New York Blood Center, Inc., priority 2020, dated 2026).

Key:
[1] = test system: CD27+ memory B cells from healthy donors; assay: 7-day stimulated memory B cell culture; assay type: cell-based, human; conditions: different doses of hemin, 7 days
Text: FIG. 6A-G. Effect of heme on memory plasmablast differentiation and IgG class-switch B cell development. FIG. 6A: Gating strategy for single live B cell analysis after culture. FIG. 6B: Fold change in CD38+ plasmablast cells in 7-day stimulated HD purified CD27+ memory B cells (as described for naïve B cell cultures in FIG. 1) in the presence of different doses of hemin relative to no hemin treatment. FIG. 6C: Histogram showing IgG expression levels in CD38+ plasmablasts from naïve B cell stimulated cultures. FIG. 6D: Fold change of IgG+ cell frequency in CD38+ plasmablasts in the presence of 2.5 μM or 5 μM hemin relative to no hemin treatment in stimulated naïve B cells from HD, Allo(−) and Allo(+) SCD patients. FIG. 6E: Naïve B cells from HD were cultured with 20% SCD patients' sera from Allo(−) or Allo(+) patients and stimulated with B cell activation cocktail for 7 days as described. Frequency of CD38+ plasmablasts is shown. FIG. 6F: Fold change of proliferated B cell frequency (within total, live B cells) in the presence of 2.5 μM or 5 μM hemin relative to no hemin treatment in stimulated naïve B cells from HD, Allo(−) and Allo(+) SCD patients. FIG. 6G: The change and fold change of live cell frequency in total 7-day stimulated HD B cell in the presence of different concentrations of hemin.
Cell isolation and culture.

[2] = test system: naïve B cells from Allo(−) and Allo(+) SCD patients; assay: 7-day stimulated naïve B cell culture from SCD patients; assay type: cell-based, human; conditions: for inhibition of plasmablast B cell differentiation: heme 5 μM
Experimental: Human samples. All studies were approved by the institutional Review Boards of the New York Blood Center (NYBC) and Montefiore Health Center. […] The blood samples from SCD patients were processed within 18 hours after collection. For circulating DOCK8 expression studies in healthy controls, peripheral blood samples from de-identified, race-matched healthy donors were used. Leukocyte enriched products from de-identified healthy donors were used for purification of B cells for in vitro culture studies.
Cell isolation and culture. Peripheral blood mononuclear cells (PBMCs) were prepared by Ficoll (GE Healthcare) density gradient centrifugation from healthy donor leukopak products as well as from sickle peripheral blood apheresis waste bags. Human naïve and memory B cells were isolated from PBMCs using a human memory B Cell Isolation Kit (Miltenyi Biotec) by collecting CD27− B cells (naïve B cells) and CD27+ B cell (memory B cells) separately. […] In addition, heme and various inhibitors were added to the cultures at the start point and incubated for 7 days.
Cultured cells: stimulated B cells were transferred into U bottom 96 well plate and washed with 200 μl MACS buffer (D-PBS containing 0.5% BSA and 2 mM EDTA) at 300×g for 5 min at 4° C. After one wash, cells were stained for surface expression of CD19, CD38, CD27 using 25 μl staining buffer (anti-CD19, CD38, CD27 antibodies, diluted 200 fold with MACS buffer) for 30 min at 4° C. After one wash with 200 μl MACS buffer, cells were resuspended in 100 μl D-PBS and 50 μl Fixable Viability Dye eFluor™ 780 (1000 fold diluted with D-PBS, Thermo Fisher Scientific) was added for dead cell detection for 5 min at room temperature. Cells were washed one time with MACS buffer and 100 μl D-DPS was added just before flow cytometric analysis (LSRFortessa flow cytometer, BD Bioscience). For intracellular staining of IgG, Blimp-1 and HO-1, samples were first washed with 200 μl MACS buffer before addition of 150 μl Fixation/Permeabilization buffer (Thermo Fisher Scientific) for 45 min at 4° C. After fixation, samples were washed twice with 1× Permeabilization buffer (Thermo Fisher Scientific) and stained with 25 μl intracellular staining buffer (anti-human IgG, DOCK8, Blimp-1, HO-1 antibodies, diluted 200 fold with 1× Permeabilization buffer) for 45 min at 4° C., after which the cells were washed twice with Permeabilization buffer and 100p D-DPS was added prior to flow cytometric analysis.

[3] = test system: DOCK8/STAT3 signaling pathway; assay: Protein phosphorylation analysis by intracellular flow cytometry in stimulated B cells; assay type: cell-based, human; conditions: heme 10 μM
Experimental: Protein phosphorylation analysis: B cells were short-term (maximum overnight) stimulated using the same B cell activation cocktail as above in the absence or presence of hemin (10 μM) after which B cells were fixed with the same volume pre-warmed Phosflow Fix buffer I (BD Bioscience) for 10 min at 37° C. After that, cells were washed twice with MACS buffer (400×g, 4° C., 5 min) followed by addition of 0.4 ml Perm buffer Ill (pre-chilled in −20° C., BD Bioscience) for 30 min on ice. After two washes with MACS buffer, samples were stained with staining buffer (anti-Pyk2(pY402), SYK(pY319), SRC(pY418), and STAT3(pY705), 100 fold diluted with MACS buffer) at 4° C. for 45 min, washed and analyzed by flow cytometry.
It has been shown that plasma free-heme can directly bind to DOCK8 protein and inhibit monocyte/macrophage phagocytosis through the DOCK8-Cdc42 signaling pathway. DOCK8/STAT3 signaling pathway activation, leading to phosphorylation of Pky2, SYK, SRC, and STAT3, has also been reported to be critical for B cell activation, although the effect of heme on this activation pathway was not examined. To test whether DOCK8/STAT3 signaling is inhibited by cell-free heme during B cell activation, we analyzed the phosphorylation of Pyk2, SYK, SRC, and STAT3 following short-term stimulation in the presence or absence of heme (10 μM) by intracellular flow cytometric analysis. […]

HO-1 = HO-1 expression in stimulated B cells; assay type: cell-based, human; conditions: stimulated B cells treated with heme 2.5 or 5 μM
Text: HO-1 is a key enzyme for heme degradation with multiple biologic activities attributed to its enzymatic byproducts. We analyzed HO-1 expression levels in human B cells before and after stimulation with our polyclonal B cell activation cocktail. […] We also found higher HO-1 levels in DOCK8^hi plasma cells (FIG. 8B).

DOCK8 = DOCK8 expression and DOCK8hi/DOCK8lo subsets in stimulated B cells; assay type: cell-based, human; conditions: heme 5 μM
Text: We next tested the effect of cell-free heme on DOCK8 signaling during B cell differentiation. […] Heme treatment led to inhibition of CD27^hiBlimp-1^+ plasma cell differentiation (FIG. 2D, p=0.0195).

[4] = test system: splenic B cells from C57BL/6J mice; assay: Mouse B cell differentiation in vitro; assay type: cell-based; conditions: 7 days, hemin 2.5 or 5 μM, different doses of quinine
Bach2 = Bach2 levels in human B cells; assay type: cell-based; conditions: in the presence of heme

SMILES: C=CC1=C(C)c2cc3[n-]c(cc4[n-]c(cc5nc(cc1n2)C(C)=C5C=C)c(C)c4CCC(=O)O)c(CCC(=O)O)c3C.[Fe+2] [heme, iron(III) complex of protoporphyrin IX]
- effect on memory B cell proliferation or differentiation [1]: no effect
- effect on B cell proliferation, Allo(−) versus Allo(+) patients ([2]; 2.5 or 5 μM hemin): did not differ
- DOCK8hi B cells and CD27hiBlimp-1+ plasma cell differentiation ([2]; Allo(+) SCD patients): not
- inhibition of plasmablast B cell differentiation ([2]; Allo(+) SCD patients): 16%±9.7%
- DOCK8hi B cells and CD27hiBlimp-1+ plasma cell differentiation ([2]; Allo(−) SCD patients): inhibited
- inhibition of plasmablast B cell differentiation ([2]; Allo(−) SCD patients): 58.6%±7.3%
- p-STAT3 ([3]; overnight samples): inhibitory effect
- levels of phosphorylated (p)-Pyk2/SYK/SRC/STAT3 ([3]; short-term stimulation (15 min)): significant reduction
- HO-1 expression (HO-1): further induced
- reduction in DOCK8hi subset (DOCK8): 61.6%±6.5%
- reduction in DOCK8lo subset (DOCK8): 34.1%±5.9%
- mouse plasma cell differentiation [4]: did not inhibit
- Bach2 levels (Bach2): no significant change
